Data reported in US20130089570A1, “ORAL VACCINE CO[…] ANTIGEN AND A TOLL-LIKE RECEPTOR AGONIST” (Glaxo Smith Kline Biologicals S.A., priority 2010, published 2013).
Where two headings read alike, the source gives them in different places. Marks after values point to notes of the source that are not given here.

Test system: A/Solomon Island virus (A/SI/3/2006)
Type: in vivo, BALB/c mice
Details: for IgA concentration in mucosal samples GeoMean, BAL / IgA concentration in mucosal samples GeoMean, Feces / IgA concentration in mucosal samples GeoMean, Nasal Wash / IgA concentration in mucosal samples GeoMean, Saliva / IgA concentration in mucosal samples GeoMean, Vaginal Wash: days 0 and 14, two weeks after second immunization
[1] = Table 1 study, dose of Ag 14 μg
[2] = Table 2 study, A/SI/3/2006 7.5 μg, adjuvant 1 μg

Row | Compound | IgA concentration in mucosal samples GeoMean, BAL (Table 1 study, dose of Ag 7 μg) | IgA concentration in mucosal samples GeoMean, Feces (Table 1 study, dose of Ag 7 μg) | IgA concentration in mucosal samples GeoMean, Nasal Wash (Table 1 study, dose of Ag 7 μg) | IgA concentration in mucosal samples GeoMean, Saliva (Table 1 study, dose of Ag 7 μg) | IgA concentration in mucosal samples GeoMean, Vaginal Wash (Table 1 study, dose of Ag 7 μg) | IgA concentration in mucosal samples GeoMean, BAL [1] | IgA concentration in mucosal samples GeoMean, Feces [1] | IgA concentration in mucosal samples GeoMean, Nasal Wash [1] | IgA concentration in mucosal samples GeoMean, Saliva [1] | IgA concentration in mucosal samples GeoMean, Vaginal Wash [1] | IgA concentration in mucosal samples GeoMean, BAL [2] | IgA concentration in mucosal samples GeoMean, Feces [2] | IgA concentration in mucosal samples GeoMean, Nasal Wash [2] | IgA concentration in mucosal samples GeoMean, Saliva [2] | IgA concentration in mucosal samples GeoMean, Vaginal Wash [2] | IgA BAL levels compared to IM immunization (Table 2 study, Kruskal Wallis and Dunn's multiple comparison test) | IgA response in vaginal wash by adjuvantation (Table 2 study, vaginal wash)
1 | CCCCCCCCCCC[C@H](CC(=O)N[C@H]1[C@H](OC[C@H](NC(=O)C[C@@H](CCCCCCCCCCC)OC(=O)CCCCCCCCC)C(=O)O)O[C@H](CO)[C@@H](OP(=O)(O)O)[C@@H]1OC(=O)C[C@@H](CCCCCCCCCCC)OC(=O)CCCCCCCCC)OC(=O)CCCCCCCCC [CRX527] | 7.43*** ng/mL | 48.40*** ng/mL | 11.88* ng/mL | 7.53 ng/mL | 81.01*** ng/mL | 3.67 ng/mL | 75.71*** ng/mL | 8.22 ng/mL | 5.13 ng/mL | 120.80*** ng/mL | 3.47 ng/mL | 8.68 ng/mL | 3.50 ng/mL | 3.22 ng/mL | 7.05 ng/mL |  | 
2 | Flagellin |  |  |  |  |  |  |  |  |  |  | 4.04 ng/mL | 14.56 ng/mL | 4.00 ng/mL | 2.69 ng/mL | 9.93** ng/mL | significantly higher | highly increased the IgA response
